Measurements as given in US20030187261A1, “Purine derivatives, process for their preparation and use thereof” (priority 2000, published 2003).

How the values were obtained:
HIV-2 [1] = experiment: anti-HIV-2 activity in CEM cells; type: cell-based
Method: (§6) The infected cell cultures were incubated at 37° C. for 5 days in a humidified CO2 incubator. The cytopathicity of the virus was examined by determination of MT-4 cell viability by trypan blue dye staining.

HIV-1 [2] = conditions: CEM cells
Method: as §6

MSV = experiment: MSV-induced transformation in murine embryo fibroblast C3H/3T3 cells; type: cell-based; conditions: day 6 post infection
Method: The cells were seeded in 1-ml-wells of 48-well plates and exposed to 80 PFU (plaque forming units) for 60-90 min. The virus was subsequently removed and culture medium containing appropriate concentrations of the tested compounds was added (1 ml per well). At day 6-post infection, MSV-induced transformation of the cell culture was examined microscopically. The results are summarised in Table 9 in comparison with the data on the prototype compounds.

HIV-2 [3] = experiment: HIV-2-induced cytopathicity in MT-4 cells; type: cell-based; conditions: for HIV-2 MT-4 IC50: MT-4 cells, 5 days
Method: as §6

HIV-1 [4] = conditions: for HIV-1 MT-4 IC50: MT-4 cells, 5 days
Method: as §6

CDC2 = biological target: T1, CDC2 (Homo sapiens, UniProt P06493); experiment: p34cdc2 (CDC2) kinase inhibition assay, histone H1 substrate; type: biochemical; conditions: Table 3
T1 construct: made in house; host or cells: Sf9 insect cells, baculovirus co-infection
T1 sequence (P06493 whole entry, species assumed): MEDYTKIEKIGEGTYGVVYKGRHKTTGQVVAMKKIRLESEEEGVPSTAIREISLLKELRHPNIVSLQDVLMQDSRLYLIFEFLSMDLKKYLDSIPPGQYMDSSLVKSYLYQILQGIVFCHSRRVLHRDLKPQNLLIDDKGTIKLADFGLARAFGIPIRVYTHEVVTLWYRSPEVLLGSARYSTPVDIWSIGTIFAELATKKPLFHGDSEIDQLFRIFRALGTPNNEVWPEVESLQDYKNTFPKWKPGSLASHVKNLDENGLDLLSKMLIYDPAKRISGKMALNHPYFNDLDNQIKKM
T1 sequence (P14635 whole entry partner, species assumed): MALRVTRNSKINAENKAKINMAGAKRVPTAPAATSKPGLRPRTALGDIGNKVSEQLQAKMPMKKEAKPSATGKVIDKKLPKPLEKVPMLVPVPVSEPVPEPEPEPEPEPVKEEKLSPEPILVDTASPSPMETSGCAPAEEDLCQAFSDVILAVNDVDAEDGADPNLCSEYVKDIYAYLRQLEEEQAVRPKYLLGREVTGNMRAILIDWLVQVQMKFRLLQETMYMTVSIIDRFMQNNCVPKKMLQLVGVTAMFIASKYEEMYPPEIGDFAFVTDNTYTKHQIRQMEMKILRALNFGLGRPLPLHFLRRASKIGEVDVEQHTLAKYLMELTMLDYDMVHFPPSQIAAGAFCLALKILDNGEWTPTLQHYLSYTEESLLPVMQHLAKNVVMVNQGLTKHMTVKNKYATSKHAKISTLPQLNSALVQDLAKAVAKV
Method: Cyclin-dependent kinases (p34^cdc2, p33^cdk2, p33^cdk4 and cyclins (cyclin B, E and DI) are produced in Sf9 insect cells coinfected with appropriate baculoviral constructs. The cells are harvested 68-72 hrs post infection in lysis buffer for 30 min on ice and the soluble fraction is recovered by centrifugation at 14.000 g for 10 min. The protein extract is stored at −80° C.
To carry out experiments on kinetics under linear conditions, the final point test system for kinase activity measurement is used. The kinase is added to the reaction mixture in such a way that linear activity is obtained with respect to the concentration of enzyme and with respect to time.
Inhibition of p33^cdk4 kinase is determined with Rb-GST (0.2 mg/ml) as the substrate. Kinase activity is determined at 30° C. in kinase buffer.
Tested compounds are usually dissolved to 100 mM solutions in DMSO, the final concentration of DMSO in reaction mixture never exceeds 1%. The controls contain suitable dilutions of DMSO. After 10 min, the addition of 3×SDS sample buffer stops the incubations. […] The measurement of kinase activity is done using digital image analysis. The kinase activity is expressed as a percentage of maximum activity, the apparent inhibition constants are determined by graphic analysis. Kinase buffer: 50 mM Hepes pH 7.4, 10 mM MgCl21 5 mM EGTA, 10 mM 2-glycerolphosphate,

IκB-α = IκB-α kinase-inhibitory activity; type: biochemical; conditions: Table 3
From the text: Modification of 2,6,9-trisubstituted purines by a catechol-like substituent at R6 leads to an increase in cdk inhibitory activity of the tested compounds.

MPF activity = experiment: M-phase promoting factor inhibition in metaphase-arrested Xenopus egg extracts; type: biochemical; conditions: 1.5 h after addition
Method: (§1) Metaphase-arrested Xenopus egg extracts were prepared as described previously by Blow “J. Cell Biol.” 1993, 122:993 and stored in liquid nitrogen. Demembranated Xenopus sperm nuclei were prepared as described by Blow & Laskey “Cell” 1986;47:577.
(§2) At concentrations of cdk inhibitors (see Table 6) ranging from 0.1-2 μM, chromosomes remained highly condensed and no nuclear envelope was visible. At 4-6 μM and higher concentrations, interphase nuclei appeared with partially decondensed chromatin and an intact nuclear envelope. […] For the inhibition effect to become detectable, the first 15-min incubation of the interphase extract is probably sufficient.

DNA synthesis = DNA synthesis in Xenopus egg extracts ([α-32P]dATP incorporation); type: biochemical; conditions: [α-32P]dATP incorporation after 3 h; read-out: Inhibition of DNA synthesis IC50
Method: as §1, §2

[5] = system: T-lymphoblastic leukemia cell line CEM; experiment: MTT cytotoxicity assay, CEM; type: cell-based, human; conditions: 72 hours (TCS50 in the method)
From the text: (§3) One of the parameters used as the basis for colorimetric assays is the metabolic activity of viable cells. For example, a microtiter assay, which uses the tetrazolium salt MTT, is now widely used to quantitate cell proliferation and cytotoxicity. For instance, this assay is used in drug screening programs and in chemosensitivity testing. Because only metabolically active cells cleave tetrazolium salts, these assays detect viable cells exclusively. In the case of MTT assay, yellow soluble tetrazolium salt is reduced to coloured water-insoluble formazan salt. After it is solubilized, the formazan formed can easily and rapidly be quantified in a conventional ELISA plate reader at 570 nm (maximum absorbance). The quantity of reduced formazan corresponds to number of vital cells in the culture. Human T-lymphoblastic leukemia cell line CEM; promyelocytic HL-60 and monocytic U937 leukemias; breast carcinoma cell lines MCF-7, BT549, MDA-MB-231; glioblastoma U87MG cells; cervical carcinoma cells HELA; sarcoma cells U20S and Saos2; hepatocellular carcinoma HepG2; mouse immortalized bone marrow macrophages B2.4 and B10A.4; P388D1 and L1210 leukemia; B16 and B16F10 melanomas were used for routine screening of the compounds according to the invention. The cells were maintained in Nunc/Corning 80 cm^2 plastic tissue culture flasks and cultured in cell culture medium (DMEM with 5 g/l glucose, 2 mM glutamine, 100 U/ml penicillin, 100 μg/ml streptomycin, 10% fetal calf serum and sodium bicarbonate).
(§4) The cell suspensions that were prepared and diluted according to the particular cell type and the, expected target cell density (2500-30000 cells per well based on cell growth characteristics) were added by pipette (80 μl) into 96-well microtiter plates. Inoculates were allowed a pre-incubation period of 24 hours at 37° C. and 5% CO2 for stabilisation. Four-fold dilutions of the intended test concentration were added at time zero in 20 μl aliquots to the microtiter plate wells. Usually, test compound was evaluated at six 4-fold dilutions. In routine testing, the highest well concentration was 266.7 μM, but it can be the matter of change dependent on the agent. All drug concentrations were examined in duplicates. Incubations of cells with the test compounds lasted for 72 hours at 37° C., in 5% CO2 atmosphere and 100% humidity. At the end of incubation period, the cells were assayed by using the MTT. Ten microliters of the MTT stock solution were pipetted into each well and incubated further for 1-4 hours. After this incubation period, formazan was solubilized by addition of 100 μl/well of 10% SDS in water (pH=5.5) followed by further incubation at 37° C. overnight. The optical density (OD) was measured at 540 nm with the Labsystem iEMS Reader MF (UK). The tumour cell survival (TCS) was calculated using the following equation: TCS=(ODdrug exposed well/mean ODcontrol wells)×100%. The TCS50 value, the drug concentration lethal to 50% of the tumour cells, was calculated from the obtained dose response curves.
(§5) The cytoxicity of novel compounds was tested on panel of cell lines of different histogenetic and species origin (Table 7). Equal activities were found in all tumour cell lines tested. […] Importantly, this observation distinguishes the purine derivatives of the invention from flavopiridol and related compounds, as their biological activity is dependent on p53 status.

B16 melanoma = experiment: MTT cytotoxicity assay, B16; type: cell-based, mouse; conditions: 72 hours (TCS50 in the method)
From the text: as §3, §4, §5

normal human lymphocytes = experiment: concanavalin A induced lymphocyte proliferation, [3H]-TdR incorporation; type: cell-based; conditions: 72 hours, read-out: ED50 (the source's name)
Method: Human heparinized peripheral blood was obtained from healthy volunteers by cubital vein punction. The blood was diluted in PBS (1:3) and mononuclear cells were separated by centrifugation in Ficoll-Hypaque density gradient (Pharmacia, 1.077 g/ml) at 2200 rpm for 30 minutes. Following centrifugation, lymphocytes were washed in PBS and resuspended in cell culture medium (RMPI 1640, 2 mM glutamine, 100 U/ml penicillin, 100 μg/ml streptomycin, 10% fetal calf serum and sodium bicarbonate).
The cells were diluted at target density of 1100000 cells/ml and were added by pipette (180 μl) into 96/well microtiter plates. Four-fold dilutions of the intended test concentration were added at time zero in 20 μl aliquots to the microtiter plate wells. Usually, test compound was evaluated at six 4-fold dilutions. In routine testing, the highest well concentration was 266.7 μM. All drug concentrations were examined in duplicates. All wells with exception of unstimulated controls were activated with 50 μl of concanavalin A (25 μg/ml). Incubations of cells with test compounds lasted for 72 hours at 37° C., in 5% CO2 atmosphere and 100% humidity. At the end of incubation period, the cells were assayed by using the [^3H]-TdR:
Cell cultures were incubated with […] (20 μl of stock solution 500 μCi/ml) per well for 6 hours at 37° C. and 5% CO2. The automated cell harvester was used to lyse cells in water and adsorb the DNA onto glass-fiber filters in the format of microtiter plate. The DNA incorporated [^3H]-TdR was retained on the filter while unincorporated material passes through. The filters were dried at room temperature overnight, sealed into a sample bag with 10-12 ml of scintillant. The amount of [^3H]-TdR present in each filter (in cpm) was determined by scintillation counting in a Betaplate liquid scintillation counter. The effective dose of immunosuppressant (ED) was calculated using the following equation: ED=(cpmdrug exposed well/mean cpmcontrol wells)×100%. The EDs50 value, the drug concentration inhibiting proliferation of 50% of lymphocytes, was calculated from the obtained dose response curves.
To evaluate immunosuppressive activity of substituted adenines, their ability to inhibit polyclonal mitogen induced proliferation of normal human lymphocytes was analyzed (Table 8). […] Effective immunosuppressive dose of new derivatives under in vitro conditions was close to 1-20 μM.

retroviruses = experiment: anti-retroviral activity in vitro; type: cell-based
Method: as §6

the cells = conditions: at 100 μg/ml

In the case of `Nc1nc(NCc2ccc(O)c(O)c2)c2ncn(CCOCP(=O)(O)O)c2n1`, the “HIV-2 CEM IC50” value (HIV-2 [1]) is reported as >20 µg/mL and the “HIV-1 CEM IC50” value (HIV-1 [2]) is reported as >20 µg/mL.

`CN(CCc1ccc(O)c(O)c1)c1nc(N)nc2c1ncn2CCOCP(=O)(O)O` was tested, and the “MSV IC50” value (MSV) was 0.9 µg/mL, the “HIV-2 MT-4 IC50” value (HIV-2 [3]) was 32 µg/mL and the “HIV-2 CEM IC50” value (HIV-2 [1]) was >20 µg/mL. The “HIV-1 CEM IC50” value (HIV-1 [2]) was >20 µg/mL.

`CC(Cn1cnc2c(NCc3ccc(O)c(O)c3)nc(N)nc21)OCP(=O)(O)O` (centres unmarked) was tested, and the “HIV-2 CEM IC50” value (HIV-2 [1]) was 8.3 µg/mL and the “HIV-1 MT-4 IC50” value (HIV-1 [4]) was 3.2 µg/mL.

In the case of `CC(Cn1cnc2c(N(C)CCc3ccc(O)c(O)c3)nc(N)nc21)OCP(=O)(O)O` (centres unmarked), the “HIV-2 MT-4 IC50” value (HIV-2 [3]) is reported as 3.2 µg/mL and the “HIV-2 CEM IC50” value (HIV-2 [1]) is reported as 7.8 µg/mL.

`CC(Cn1cnc2c(NC(CO)c3ccccc3)nc(N)nc21)OCP(=O)(O)O` (centres unmarked) was tested, and the “HIV-2 CEM IC50” value (HIV-2 [1]) was >20 µg/mL, the “HIV-1 MT-4 IC50” value (HIV-1 [4]) was 10.1 µg/mL and the “HIV-1 CEM IC50” value (HIV-1 [2]) was >20 µg/mL.

`CC[C@H](CO)Nc1nc(N(C)CCc2ccc(O)c(O)c2)c2ncn(C(C)C)c2n1` was tested, and the IC50 (CDC2) was 950 nM, the IC50 (IκB-α) was 3200 nM and the IC50 (MPF activity) was 1120 nM. The IC50 (DNA synthesis) was 1300 nM, the IC50 [5] was 6000 nM and the IC50 (B16 melanoma) was 6000 nM. For the same compound, the EC50 (normal human lymphocytes) was 1500 nM.

For `Nc1nc(NC(CO)c2ccccc2)c2ncn(CCOCP(=O)(O)O)c2n1` (racemic), the “HIV-2 CEM IC50” value (HIV-2 [1]) was >20 µg/mL and the “HIV-1 CEM IC50” value (HIV-1 [2]) was >20 µg/mL.

For `C[C@H](Cn1cnc2c(N)nc(N)nc21)OCP(=O)(O)O` [(R)-PMPD], the “selectivity index (ratio cytotoxic dose/antivirally active dose)” value (HIV-2 [3]; HIV-2) was “higher than 2000”, the EC50 retrovirus replication (retroviruses) was 0.01 to 0.1 µg/mL and the “selectivity index (ratio cytotoxic dose/antivirally active dose)” value (HIV-1 [4]; HIV-1) was “higher than 2000”. The “toxicity to the cells” value (the cells) was “not toxic”.
